The record followed here is PMC11274943, “Discovery of Benzisothiazolone Derivatives as Bifunctional Inhibitors of HIV-1 Reverse Transcriptase DNA Polymerase and Ribonuclease H Activities” (Biomolecules, 2024).

What all share (type): biochemical
Assay [1] relates to G190A HIV-1 RT RNase H activity. In words: FRET-based RT RNase H cleavage assay, G190A RT. The note with it: G190A RT; fold resistance IC50 mutant/IC50 WT. As for the experimental part:
(§1) WT (wild-type) RT, and RTs harboring the NNRTI-resistant mutations K101E, K103N, Y181C, Y188C, G190A and P236L, were overexpressed and purified to homogeneity as described previously. The RT concentration was determined spectrophotometrically at 280 nm using an absorbance coefficient of 260,450 M^−1·cm^−1. The 7-hydroxy tropolone derivative 19,616 (2,7-dihydroxy 2,4,6-cyclo-heptatrien-1-one) was purchased from Molecular Diversity Preservation International (Basel, Switzerland). Nevirapine was purchased from Selleckchem (Houston, TX, USA). The benzisothiazolone derivatives were procured from MolPort (New York, NY, USA) or Enamine (Kyiv, Ukraine). The DNA and RNA oligonucleotides were synthesized and purified by Integrated DNA Technologies (Coralville, IA, USA). All other reagents were of the highest quality available and were used without further purification.
(§2) The following RNA/DNA T/P substrate was used in the present study: an 18-nucleotide RNA template (RNA-18T: 5′-[…]-3′) was annealed to an 18-nucleotide primer (DNA-18T: 5′-[…]-3′), as described previously. Fluorescein and IowaBlack FQTM were covalently attached to the 3′- and 5′-ter-mini of the RNA and DNA oligonucleotides, respectively.
(§3) The FRET-based RNase H cleavage assays were carried out as described previously. Fluorescence was measured with a SpectraMax M2 microplate spectrofluorometer (Molecular Devices, San Jose, CA, USA) using an excitation wavelength of 490 nm and an emission wavelength of 528 nm. Data were analyzed using SoftMax Pro software, version 4.7.1 (Molecular Devices, San Jose, CA, USA).

In assay [2] the test system is Y188C HIV-1 RT DNA-dependent DNA polymerase activity. Kind of assay: biochemical. Particulars: Y188C RT; fold resistance IC50 mutant/IC50 WT. As for the experimental part: as §1, with “Nevirapine was purchased from Selleckchem (Houston, TX, USA).” left out
(§4) DDDP assays were also performed using a QuantiFluor ONE based spectrophotometric assay to detect double-stranded DNA synthesized by recombinant HIV-1 RT [14]. The reaction contained 40 nM of a template/primer comprising a 200 nt DNA template (5′-[…] […]-[…]-[…] […] […]-3′) annealed to an 18-nucleotide DNA primer (5′-[…]-3′), and a mix of 50 mM Tris-HCl pH 7.8, 50 mM NaCl, 10 mM MgCl2 and 50 µM dNTP. The reactions were stopped after 45 min by adding the detection reagent containing 1 × Quant-Fluor One (Promega) and 12.5 mM ethylenediaminetet-raacetic acid; the samples were transferred to a 96-well black plate, and fluorescence was measured at excitation/emission (490/535 nm).

The target of assay [3] is T1, WT HIV-1 RT DNA-dependent DNA polymerase activity (Human immunodeficiency virus type 1 group M subtype B, UniProt P04585).
T1 construct: made in house
Kind of assay: biochemical. As for the experimental part:
as §1, with “Nevirapine was purchased from Selleckchem (Houston, TX, USA).” left out
as §4

For assay [4], the system named is K103N HIV-1 RT DNA-dependent DNA polymerase activity. In words: biochemical. The note with it: K103N RT; fold resistance IC50 mutant/IC50 WT. As for the experimental part: as §1, with “Nevirapine was purchased from Selleckchem (Houston, TX, USA).” left out
as §4

Assay [5] relates to P236L HIV-1 RT DNA-dependent DNA polymerase activity. Kind of assay: biochemical. The note with it: P236L RT; fold resistance IC50 mutant/IC50 WT. As for the experimental part:
as §1, with “Nevirapine was purchased from Selleckchem (Houston, TX, USA).” left out
as §4

Assay [6] concerns the target T2, Y188C HIV-1 RT DNA-dependent DNA polymerase activity (Human immunodeficiency virus type 1 group M subtype B, UniProt P04585, Y775C).
T2 construct: made in house
Kind of assay: biochemical. The method, then: as §1, with “Nevirapine was purchased from Selleckchem (Houston, TX, USA).” left out
as §4

In assay [7] the test system is K101E HIV-1 RT DNA-dependent DNA polymerase activity. Kind of assay: biochemical. The note with it: K101E RT; fold resistance IC50 mutant/IC50 WT. The method, then: as §1, with “Nevirapine was purchased from Selleckchem (Houston, TX, USA).” left out
as §4

Assay [8] concerns the target T3, Y181C HIV-1 RT DNA-dependent DNA polymerase activity (Human immunodeficiency virus type 1 group M subtype B, UniProt P04585, Y768C).
T3 construct: made in house
In words: biochemical. The method, then: as §1, with “Nevirapine was purchased from Selleckchem (Houston, TX, USA).” left out
as §4

The subject of assay [9] is Y181C HIV-1 RT DNA-dependent DNA polymerase activity. Kind of assay: biochemical. The note with it: Y181C RT; fold resistance IC50 mutant/IC50 WT. The method, then: as §1, with “Nevirapine was purchased from Selleckchem (Houston, TX, USA).” left out
as §4

In assay [10] the target is T4, G190A HIV-1 RT DNA-dependent DNA polymerase activity (Human immunodeficiency virus type 1 group M subtype B, UniProt P04585, G777A).
T4 construct: made in house
Kind of assay: biochemical. The method, then: as §1, with “Nevirapine was purchased from Selleckchem (Houston, TX, USA).” left out
as §4

Assay [11] has as its target T5, K103N HIV-1 RT DNA-dependent DNA polymerase activity (Human immunodeficiency virus type 1 group M subtype B, UniProt P04585, K690N).
T5 construct: made in house
Kind of assay: biochemical. The method, then:
as §1, with “Nevirapine was purchased from Selleckchem (Houston, TX, USA).” left out
as §4

The target of assay [12] is T6, K101E HIV-1 RT DNA-dependent DNA polymerase activity (Human immunodeficiency virus type 1 group M subtype B, UniProt P04585, K688E).
T6 construct: made in house
Kind of assay: biochemical. The method, then: as §1, with “Nevirapine was purchased from Selleckchem (Houston, TX, USA).” left out
as §4

The target of assay [13] is T7, P236L HIV-1 RT DNA-dependent DNA polymerase activity (Human immunodeficiency virus type 1 group M subtype B, UniProt P04585, P823L).
T7 construct: made in house
Kind of assay: biochemical. The method, then:
as §1, with “Nevirapine was purchased from Selleckchem (Houston, TX, USA).” left out
as §4

The subject of assay [14] is Y181C HIV-1 RT RNase H activity. Kind of assay: FRET-based RT RNase H cleavage assay, Y181C RT. Particulars: Y181C RT; fold resistance IC50 mutant/IC50 WT. As for the experimental part:
as §1, §2, §3

Assay [15] deals with T8, Y181C HIV-1 RT RNase H activity (Human immunodeficiency virus type 1 group M subtype B, UniProt P04585, Y768C).
T8 construct: made in house
Kind of assay: FRET-based RT RNase H cleavage assay, Y181C RT. As for the experimental part: as §1, §2, §3

Assay [16] relates to G190A HIV-1 RT DNA-dependent DNA polymerase activity. Kind of assay: biochemical. The note with it: G190A RT; fold resistance IC50 mutant/IC50 WT. The method, then:
as §1, with “Nevirapine was purchased from Selleckchem (Houston, TX, USA).” left out
as §4

The term IC50 denotes the concentration needed to halve the response being measured. Read a low IC50 as greater potency. As for `Cc1ccc(-n2sc3ccccc3c2=O)cc1S(=O)(=O)N1CCCCC1` [Compound 1, 2-(4-methyl-3-(piperidin-1-ylsulfonyl)phenyl)benzo[d]isothiazol-3(2H)-one], the “Inhibition of RT RNase H Activity Fold-R” value in assay [1] is 1.3; in assay [14], 2.9. For the same molecule, the “Inhibition of RT DNA polymerase activity Fold-R” value in assay [2] amounted to 0.02; in [4], 0.6; in [5], 0.4; in [7], 1.2; in assay [9], 0.1. The IC50 in [3] is 5970 ± 3100 nM; in assay [6] it was 140 ± 10 nM; in [8], 610 ± 60 nM; in assay [10], 1600 ± 880 nM; in [11], 3660 ± 1840 nM; in assay [12], 7330 ± 7050 nM. In addition, the concentration for half-maximal inhibition (IC50) amounted to 2220 ± 180 nM in assay [13] and 470 ± 50 nM in [15].

On to `CCOC(=O)Cc1csc(-n2sc3ccccc3c2=O)n1` [Compound 2, ethyl 2-(2-(3-oxobenzo[d]isothiazol-2(3H)-yl)thiazol-4-yl)acetate], for which the figures for the “Inhibition of RT RNase H Activity Fold-R” value in assay [1] and in assay [14] were 1.8 and 4.2, respectively. Also, the “Inhibition of RT DNA polymerase activity Fold-R” value in assay [2] was found to be 0.2; in assay [4], 1.2; in assay [5], 1.9; in assay [7], 1.8; in [9], 0.3; in [16], 0.7. For the same molecule, the IC50 in [3] turned out to be 2640 ± 1850 nM; in assay [6], 530 ± 80 nM; in assay [8], 710 ± 100 nM; in assay [10] it was 1930 ± 490 nM; in assay [11], 3280 ± 1530 nM; in [12], 4880 ± 1560 nM. The half-maximal inhibitory concentration (IC50) in assay [13] is 5130 ± 1680 nM; in [15], 550 ± 20 nM.

For the molecule `CCN(CC)S(=O)(=O)c1cccc(-n2sc3ccccc3c2=O)c1` [Compound 4, N,N-diethyl-3-(3-oxobenzo[d]isothiazol-2(3H)-yl)benzenesulfonamide], the figures for the “Inhibition of RT RNase H Activity Fold-R” value in assay [1] and in assay [14] were 1.2 and 1.0, respectively. Besides, the “Inhibition of RT DNA polymerase activity Fold-R” value in assay [2] is reported as 0.3; in assay [4] it was 1.9; in [5], 1.5; in assay [7], 1.6; in assay [9], 0.45; in assay [16], 1.5. The IC50 in assay [3] is 1100 ± 300 nM; in assay [6], 300 ± 100 nM; in [8], 500 ± 200 nM; in assay [10], 1700 ± 1000 nM; in [11], 2100 ± 700 nM; in assay [12], 1800 ± 700 nM. Also, the results for the IC50 in [13] and in assay [15] were 1600 ± 900 nM and 270 ± 30 nM, respectively.
